Data taken from ChEMBL document CHEMBL5512654, “Discovery of novel Thymol-TPP antibiotics that eradicate MRSA persisters” (Eur J Med Chem, 2024).
Values after ≈ are worked out from the molar mass of the structure shown. Active and inactive are the calls of the source. The rule behind the calls is not given here.

Key:
[1] = system: Staphylococcus aureus; assay: Antibacterial activity against methicillin-resistant Staphylococcus aureus USA 3390 assessed as eradication of persistence by measuring rapid killing effect 8 times of MIC concentration relative to control; type: functional
[2] = system: Cell membrane; assay: Induction of cell membrane damage in methicillin-resistant Staphylococcus aureus USA 3390 assessed as rough/shrunken and wrinkled surface at logarithmic growth phase at 4 times of MIC measured after 1 hr by Scanning electron micrographic analysis; type: cell membranes
[3] = system: Staphylococcus aureus; assay: Bactericidal activity against methicillin-resistant Staphylococcus aureus USA 3390 assessed as reduction in CFU at 4 times of MIC concentration measured after 24 hrs by time-kill kinetics assay; type: functional, organism-based
[4] = system: Staphylococcus aureus; assay: Bactericidal activity against methicillin-resistant Staphylococcus aureus USA 3390 assessed as reduction in CFU at 2 times of MIC concentration measured upto 4 hrs by time-kill kinetics assay; type: functional
[5] = system: Cell membrane; assay: Induction of cell membrane damage in methicillin-resistant Staphylococcus aureus USA 3390 assessed as increase in fluorescence intensity at 1 to 8 times of MIC concentration measured at 5 mins by SYTOX green assay; type: cell membranes
[6] = system: Cell membrane; assay: Induction of cell membrane permeability in methicillin-resistant Staphylococcus aureus USA 3390 persisters assessed as increase in leakage (DNA) of 260 nm absorbing material at 1 to 8 times of MIC measured upto 5 hrs; type: cell membranes
[7] = system: Staphylococcus aureus; assay: Antibacterial activity against methicillin-resistant Staphylococcus aureus USA 3390 assessed as eradication of persistence by measuring rapid killing effect 8 times of MIC concentration measured upto 7 hrs; type: functional, organism-based
[8] = system: Staphylococcus aureus; assay: Induction of cell membrane permeability in methicillin-resistant Staphylococcus aureus USA 3390 assessed as increase absorption in leakage of 260 nm absorbing material at 1 to 8 times of MIC measured at 4 hrs; type: functional, organism-based
[9] = system: Staphylococcus aureus; assay: Induction of cell membrane permeability in methicillin-resistant Staphylococcus aureus USA 3390 assessed as increase in leakage of 260 nm absorbing material at measured upto 6 hrs; type: functional, organism-based
[10] = system: Staphylococcus aureus; assay: Bactericidal activity against methicillin-resistant Staphylococcus aureus USA 3390 assessed as reduction in CFU at 4 times of MIC concentration measured upto 1 hrs by time-kill kinetics assay; type: functional
[11] = system: Escherichia coli; assay: Antibacterial activity against Escherichia coli 53328 assessed as inhibition of bacterial growth measured after 18 hrs by microplate reader; type: functional; settings: read-out: MIC100
[12] = system: Staphylococcus aureus; assay: Bactericidal activity against methicillin-resistant Staphylococcus aureus USA 3390 assessed as reduction in CFU at 2 times of MIC concentration measured after 24 hrs by time-kill kinetics assay; type: functional, organism-based
[13] = system: Staphylococcus aureus; assay: In vivo antibacterial efficacy in bioluminescent Staphylococcus aureus Xen29 infected in mouse topical infection model assessed as wound scabbing at 8 mg/kg, sc treated 16, 24, 36, 48, […] hrs post-infection measured after 84 hrs; type: functional, organism-based
[14] = system: Staphylococcus aureus; assay: Bactericidal activity against methicillin-resistant Staphylococcus aureus USA 3390 assessed as reduction in CFU at 4 to 8 times of MIC concentration measured after 24 hrs by time-kill kinetics assay; type: functional, organism-based
[15] = system: Staphylococcus aureus; assay: Antibacterial activity against methicillin-resistant Staphylococcus aureus USA 3390 assessed as eradication of persistence by measuring rapid killing effect 4 times of MIC concentration measured upto 7 hrs; type: functional, organism-based
[16] = system: Acinetobacter baumannii; assay: Antibacterial activity against Acinetobacter baumannii ATCC 1318 assessed as inhibition of bacterial growth measured after 18 hrs by microplate reader; type: functional
[17] = system: Staphylococcus aureus; assay: Bactericidal activity against methicillin-resistant Staphylococcus aureus USA 3390 assessed as reduction in CFU at 1 times of MIC concentration measured for short time by time-kill kinetics assay; type: functional, organism-based
[18] = system: Staphylococcus aureus; assay: Induction of cell membrane permeability in methicillin-resistant Staphylococcus aureus USA 3390 assessed as increase in leakage of 260 nm absorbing material at 1 to 8 times of MIC; type: functional, organism-based; settings: time <= 6.0 hrs, TDE = time-dependent effect
[19] = system: Klebsiella pneumoniae; assay: Antibacterial activity against Klebsiella pneumonia 3026 assessed as inhibition of bacterial growth measured after 18 hrs by microplate reader; type: functional
[20] = system: Cell membrane; assay: Induction of plasma membrane damage in methicillin-resistant Staphylococcus aureus USA 3390 at logarithmic growth phase at 4 times of MIC measured after 1 hr by Scanning electron micrographic analysis; type: cell membranes
[21] = system: Staphylococcus aureus; assay: In vivo antibacterial efficacy in bioluminescent Staphylococcus aureus Xen29 infected in mouse topical infection model assessed as decrease in fluorescence intensity at 8 mg/kg, sc treated 16, 24, 36, 48, […] hrs post-infection measured after 84 hrs; type: functional, organism-based
[22] = system: Staphylococcus aureus; assay: Drug resistance, ratio of MIC for methicillin-resistant Staphylococcus aureus USA 3390 after […] exposure to MIC for methicillin-resistant Staphylococcus aureus USA 3390 after first exposure; type: functional
[23] = system: Pseudomonas aeruginosa; assay: Antibacterial activity against Pseudomonas aeruginosa ATCC 27853 assessed as inhibition of bacterial growth measured after 18 hrs by microplate reader; type: functional
[24] = system: Cell membrane; assay: Induction of cell membrane depolarization in methicillin-resistant Staphylococcus aureus USA 3390 assessed as increase in fluorescence intensity at 1 to 8 times of MIC concentration measured upto 60 mins by DiSC3-5 dye based fluorescence analysis; type: cell membranes
[25] = system: Acinetobacter baumannii; assay: Antibacterial activity against Acinetobacter baumannii ATCC 19606 assessed as inhibition of bacterial growth measured after 18 hrs by microplate reader; type: functional
[26] = system: Klebsiella pneumoniae; assay: Antibacterial activity against Klebsiella pneumonia ATCC 700603 assessed as inhibition of bacterial growth measured after 18 hrs by microplate reader; type: functional
[27] = Cytotoxicity against human L02 cells incubated for 72 hrs by MTT dye reduction assay; type: toxicity, cell-based
[28] = system: Staphylococcus aureus; assay: Bactericidal activity against methicillin-resistant Staphylococcus aureus USA 3390 assessed as reduction in CFU at 1 times of MIC concentration measured after 1 hrs by time-kill kinetics assay; type: functional, organism-based
[29] = system: Pseudomonas aeruginosa; assay: Antibacterial activity against Pseudomonas aeruginosa 535 assessed as inhibition of bacterial growth measured after 18 hrs by microplate reader; type: functional
[30] = system: Staphylococcus aureus; assay: Bactericidal activity against methicillin-resistant Staphylococcus aureus USA 3390 assessed as reduction in CFU at 1 times of MIC concentration measured after 24 hrs by time-kill kinetics assay; type: functional, organism-based
[31] = system: Cell membrane; assay: Induction of cell membrane damage in methicillin-resistant Staphylococcus aureus USA 3390 assessed as increase in fluorescence intensity at 1 to 8 times of MIC concentration measured upto 120 mins by SYTOX green assay relative to control; type: cell membranes
[32] = system: Staphylococcus aureus; assay: In vivo antibacterial efficacy in bioluminescent Staphylococcus aureus Xen29 infected in mouse topical infection model assessed as reduction in number of colonies at 8 mg/kg, sc treated 16, 24, 36, 48, […] hrs post-infection measured after 84 hrs relative to control; type: functional
[33] = system: Cell membrane; assay: Induction of cell membrane depolarization of methicillin-resistant Staphylococcus aureus USA 3390 persisters assessed as increase in fluorescence intensity at 4 to 8 ug/ml measured at 10 mins by SYTOX green assay relative to control; type: cell membranes; settings: dose 4-8 µg/ml
[34] = Toxicity in mouse infected with bioluminescent Staphylococcus aureus Xen29 assessed as change in body weight at 8 mg/kg, sc treated 16, 24, 36, 48, […] and 72 hrs post-infection measured after 84 hrs; type: organism-based; settings: in vivo
[35] = system: Cell membrane; assay: Induction of cell membrane permeability of methicillin-resistant Staphylococcus aureus USA 3390 persisters assessed as increase in fluorescence intensity at 4 to 8 ug/ml measured at 30 mins by SYTOX green assay relative to control; type: cell membranes; settings: dose 4-8 µg/ml
[36] = system: Staphylococcus aureus; assay: Antibacterial activity against methicillin-resistant Staphylococcus aureus USA 3390 assessed as eradication of persistence by measuring rapid killing effect 4 times of MIC concentration relative to control; type: functional
[37] = system: Escherichia coli; assay: Antibacterial activity against Escherichia coli ATCC 25922 assessed as inhibition of bacterial growth measured after 18 hrs by microplate reader; type: functional; settings: read-out: MIC100
[38] = system: Staphylococcus aureus; assay: Antibacterial activity against Staphylococcus aureus ATCC 43300 assessed as inhibition of bacterial growth measured after 18 hrs by microplate reader; type: functional; settings: read-out: MIC100
[39] = system: Staphylococcus aureus; assay: Antibacterial activity against methicillin-resistant Staphylococcus aureus USA 3390 assessed as inhibition of bacterial growth measured after 18 hrs by microplate reader; type: functional; settings: read-out: MIC100
[40] = system: Staphylococcus aureus; assay: Antibacterial activity against methicillin-resistant Staphylococcus aureus USA 300 assessed as inhibition of bacterial growth measured after 18 hrs by microplate reader; type: functional; settings: read-out: MIC100
[41] = system: Staphylococcus aureus; assay: Antibacterial activity against methicillin-resistant Staphylococcus aureus USA 3390 assessed as resistance development measured after 30 generations; type: functional, organism-based

For `Cc1cc(OC(=O)CCCCC[P+](c2ccccc2)(c2ccccc2)c2ccccc2)c(C(C)C)cc1-c1ccccc1.[Br-]`, the Activity [1] was 99.999%, the Activity [2] was “Active” and the Activity [3] was “Active”. For the same compound, the Activity [4] was “>=2 log10CFU/ml”, the Activity [5] was “Active” and the Activity [6] was “Active”. The Activity [7] was “Active”, the Activity [8] was “Active” and the Activity [9] was “Dose-Dependent Effect”. The Activity [10] was “>=2 log10CFU/ml”, the MIC [11] was 8 µg/mL and the Activity [12] was “inactive”. The Activity [13] was “Active”, the Activity [14] was “Active” and the Activity [15] was “Active”. The MIC ([16]; read-out: MIC100) was 8 µg/mL, the Activity [17] was “Active” and the Activity [18] was “Tde”. The MIC ([19]; read-out: MIC100) was 16 µg/mL, the Activity [20] was “Active” and the Activity [21] was “Active”. The Ratio [22] was 4, the MIC ([23]; read-out: MIC100) was 32 µg/mL and the Activity [24] was “Active”. For the same compound, the MIC ([25]; read-out: MIC100) was 8 µg/mL, the MIC ([26]; read-out: MIC100) was 8 µg/mL and the IC50 at 72 h [27] was 34.3 µg/mL. The Activity [28] was “Active”, the MIC ([29]; read-out: MIC100) was 64 µg/mL and the Activity [30] was “Active”. The Activity [31] was “Active”, the “fold change (FC)” value [32] was 10 and the Activity [33] was “Active”. For the same compound, the Activity [34] was “Non-Toxic”, the Activity [35] was “Active” and the Activity [36] was 99.99%. For the same compound, the MIC [37] was 8 µg/mL.
With `O=C(O)c1cn(C2CC2)c2cc(N3CCNCC3)c(F)cc2c1=O` [CIPROFLOXACIN] the MIC [38] was 2 µg/mL (≈ 6.04 µM), the Activity [14] was “Active” and the MIC ([16]; read-out: MIC) was 1 µg/mL (≈ 3.02 µM). For the same compound, the MIC [39] was 1 µg/mL (≈ 3.02 µM), the Activity [17] was “Active” and the MIC ([19]; read-out: MIC) was 0.06 µg/mL (≈ 0.181 µM). The MIC [40] was 1 µg/mL (≈ 3.02 µM), the MIC ([23]; read-out: MIC) was 1 µg/mL (≈ 3.02 µM) and the MIC ([25]; read-out: MIC) was 0.5 µg/mL (≈ 1.51 µM). For the same compound, the MIC ([26]; read-out: MIC) was 0.12 µg/mL (≈ 0.362 µM), the Activity [41] was “Active” and the MIC ([29]; read-out: MIC) was 1 µg/mL (≈ 3.02 µM).
